Results on 31 molecules are retold here after patent publication US9650339B2, “Inhibitors of histone demethylases” (Gilead Sciences, Inc., priority 2013, dated 2017).

The assay concerns the target T1, KDM3A (JMJD1A) (Homo sapiens, UniProt Q9Y4C1).
T1 construct: 2-end; purchased BPS Bioscience, US; host or cells: Bac (baculovirus system)
T1 sequence (Q9Y4C1 2-1321 limits assumed): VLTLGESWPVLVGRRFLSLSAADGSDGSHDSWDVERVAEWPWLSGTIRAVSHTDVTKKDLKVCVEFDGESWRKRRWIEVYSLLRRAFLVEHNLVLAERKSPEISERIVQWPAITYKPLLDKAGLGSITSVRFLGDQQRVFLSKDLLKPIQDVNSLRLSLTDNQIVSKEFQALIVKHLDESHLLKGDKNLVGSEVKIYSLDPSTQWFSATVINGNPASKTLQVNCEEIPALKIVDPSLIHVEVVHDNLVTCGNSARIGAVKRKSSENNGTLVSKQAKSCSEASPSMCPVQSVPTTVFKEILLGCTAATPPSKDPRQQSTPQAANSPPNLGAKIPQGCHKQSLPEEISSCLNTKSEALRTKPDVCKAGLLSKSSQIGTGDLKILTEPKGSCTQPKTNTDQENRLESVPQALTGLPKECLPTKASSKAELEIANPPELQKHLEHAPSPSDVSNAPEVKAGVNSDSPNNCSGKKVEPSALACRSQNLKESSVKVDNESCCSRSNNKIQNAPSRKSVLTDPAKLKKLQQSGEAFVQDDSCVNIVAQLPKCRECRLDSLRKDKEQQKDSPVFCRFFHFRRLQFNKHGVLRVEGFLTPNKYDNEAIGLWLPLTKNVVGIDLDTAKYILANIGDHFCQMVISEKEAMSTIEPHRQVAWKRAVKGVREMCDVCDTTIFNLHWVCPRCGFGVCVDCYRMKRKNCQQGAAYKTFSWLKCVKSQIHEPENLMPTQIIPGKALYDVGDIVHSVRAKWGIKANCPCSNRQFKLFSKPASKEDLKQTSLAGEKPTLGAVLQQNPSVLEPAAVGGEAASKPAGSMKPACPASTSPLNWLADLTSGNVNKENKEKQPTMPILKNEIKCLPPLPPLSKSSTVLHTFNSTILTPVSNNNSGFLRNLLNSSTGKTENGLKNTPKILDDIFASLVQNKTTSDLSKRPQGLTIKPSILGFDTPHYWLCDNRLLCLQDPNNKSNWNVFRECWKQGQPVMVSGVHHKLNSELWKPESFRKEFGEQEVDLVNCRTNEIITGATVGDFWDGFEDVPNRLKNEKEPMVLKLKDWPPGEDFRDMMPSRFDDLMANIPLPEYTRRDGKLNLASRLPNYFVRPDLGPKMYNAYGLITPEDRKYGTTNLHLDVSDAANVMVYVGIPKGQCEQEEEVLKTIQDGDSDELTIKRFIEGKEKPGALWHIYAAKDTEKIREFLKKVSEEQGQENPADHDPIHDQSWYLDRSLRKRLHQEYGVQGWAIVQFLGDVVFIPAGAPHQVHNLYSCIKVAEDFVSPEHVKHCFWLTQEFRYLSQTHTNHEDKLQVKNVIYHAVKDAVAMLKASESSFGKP
The experiment in a line: Histone lysine demethylase AlphaLISA assay, KDM3A. Format: biochemical. The conditions noted are these: read-out: KDM3 A HDME Inhibition IC50. How it is done: Assays are performed analogously to the protocol described by PerkinElmer (Roy et al. PerkinElmer Technical Note: AlphaLISA #12, April 2011)
Enzymes are dissolved in enzyme buffer and incubated for 10 min before being added to 3% DMSO solutions of compounds in enzyme buffer. Incubated for another 10 minutes, before substrate solution is added and the reaction mixture is incubated at room temperature. 10 μL acceptor beads, suspended in Epigenetic Buffer (Perkin Elmer AL008) from stock, are added and the suspension is incubated in the dark at room temperature, before a suspension of streptavidin donor beads (Perkin Elmer 6760002) in Epigenetic Buffer is added. After incubation at room temperature in the dark the plates are read. […]
BK9M2: Biotin-ARTKQTAR(KMe2)STGGKAPRKQ-NH2 (AnaSpec 64359) […]
Substrate Solution: Substrate, 25 μM L-Asc, and 10 μM α-KG in Buffer A.
(In general: In Alpha technology, singlet oxygen from a donor bead excites a nearby acceptor bead.)

Usually IC50 stands for the concentration at which inhibition is half-maximal. As to `CCN1CCCC1CNC(=O)CNCc1cc(C=O)ccn1` (stereo not shown) [Compound 104, N-[(1-ethylpyrrolidin-2-yl)methyl]-2-{[(4-formylpyridin-2-yl)methyl]amino}-acetamide], the IC50 was above 2500 nM.
On to `CCN(CC)CCCCNC(=O)CNCc1cc(/C=N/C2CC2)ccn1` [Compound 48, 2-[({4-[N-cyclopropyl-carboximidoyl]pyridin-2-yl}methyl)amino]-N-[4-(diethylamino)-butyl]acetamide], for which the half-inhibitory concentration (IC50) was above 2500 nM.
Take `CN(C)C/C=C/CNCc1cc(C=O)ccn1` [Compound 98, 2-({[(2E)-4-(dimethylamino)but-2-en-1-yl]amino}-methyl)pyridine-4-carbaldehyde]: the IC50 is above 2500 nM.
As for `CCSCCNCc1cc(/C=N/C2CC2)ccn1` [Compound 39, N-{[2-({[2-(ethylsulfanyl)-ethyl]amino}methyl)pyridin-4-yl]methylidene}-cyclopropanamine], the half-inhibitory concentration (IC50) is above 2500 nM.
The same measure for `CCCCCCCC/N=C/c1ccnc(CNCC(=O)N(CC)CC)c1` [Compound 58, N,N-diethyl-2-[({4-[(octylimino)methyl]-pyridin-2-yl}methyl)amino]-acetamide]: above 2500 nM.
The same measure for `CN(C)CCCCCNCc1cc(/C=N/C2CC2)ccn1` [Compound 47, N-{[2-({[5-(dimethylamino)-pentyl]amino}-methyl)pyridin-4-yl]methylidene}-cyclopropanamine]: above 2500 nM.
The same measure for `O=Cc1ccnc(CNCC(=O)N2CCC[C@@H]2CN2CCCC2)c1` [Compound 102, 2-[({2-oxo-2-[(2R)-2-(pyrrolidin-1-ylmethyl)pyrrolidin-1-yl]ethyl}amino)-methyl]pyridine-4-carbaldehyde]: above 2500 nM.
For `CN(C)CCC/N=C/c1ccnc(CNCCCN(C)C)c1` [Compound 37, [3-(dimethylamino)propyl]-({4-[{[3-(dimethylamino)propyl]-imino}methyl]pyridin-2-yl}methyl)amine], the IC50 is above 2500 nM.
The value for `CNCc1ccnc(CNCCCN(C)Cc2ccccc2)c1` [Compound 17, benzyl(methyl){3-[({4-[(methylamino)methyl]-pyridin-2-yl)methyl)-amino]propyl}-amine] was above 2500 nM; that for `CCCNCc1cc(CNC2CC2)ccn1` [Compound 12, N-({2-[(propylamino)methyl]-pyridin-4-yl}methyl)-cyclopropanamine] was above 2500 nM.
The same measure for `CN(C)C/C=C\CNCc1cc(C=O)ccn1` [Compound 99, 2-({[(2Z)-4-(dimethylamino)-but-2-en-1-yl]amino}methyl)-pyridine-4-carbaldehyde]: above 2500 nM; for `CCN(CC)CCCCNCc1cc(CNC(=O)C(F)(F)F)ccn1` [Compound 1, N-{[2-({[4-(diethylamino)butyl]-amino}methyl)pyridin-4-yl]methyl}-2,2,2-trifluoroacetamide]: above 2500 nM; for `CCN(CC)C(=O)CNCc1cc(C=O)ccn1` [Compound 105, N,N-diethyl-2-{[(4-formylpyridin-2-yl)methyl]amino}-acetamide]: above 2500 nM.
The same measure for `CCN(CCC#N)C(=O)CNCc1cc(/C=N/C2CC2)ccn1` [Compound 50, N-(2-cyanoethyl)-2-[({4-[N-cyclopropyl-carboximidoyl]-pyridin-2-yl}methyl)amino]-N-ethylacetamide]: above 2500 nM; for `CN(C)CCCNCc1cc(/C=N/CCN(C)C)ccn1` [Compound 38, ({4-[{[2-(dimethylamino)ethyl]-imino}methyl]pyridin-2-yl}methyl)[3-(dimethylamino)-propyl]amine]: above 2500 nM; for `NCc1ccnc(CNCCCCN2CCC2)c1` [Compound 7, [2-({[4-(azetidin-1-yl)butyl]amino}methyl)-pyridin-4-yl]-methanamine]: above 2500 nM.
Take `CN1CCCC1CCNCc1cc(/C=N/C2CC2)ccn1` (stereo not drawn) [Compound 40, N-{[2-({[2-(l-methylpyrrolidin-2-yl)ethyl]amino}methyl)-pyridin-4-yl]methylidene}-cyclopropanamine]: the IC50 was above 2500 nM.
Turning to `CCN(CCN(C)C)C(=O)CNCc1cc(/C=N/CCO)ccn1` [Compound 66], the IC50 is above 2500 nM.
The same measure for `CN(C)CCNCc1ccnc(CNCC(=O)N(C)C)c1` [Compound 15, 2-({[4-({[2-(dimethylamino)ethyl]-amino}methyl)pyridin-2-yl]methyl}amino)-N,N-dimethylacetamide]: above 2500 nM; for `CN(C)CCCCNCc1cc(C=O)ccn1` [Compound 108, 2-({[4-(dimethylamino)-butyl]amino}methyl)-pyridine-4-carbaldehyde]: above 2500 nM; for `O=C(CNCc1cc(/C=N/C2CC2)ccn1)N1CCC(Cc2ccccc2)CC1` [Compound 55, 1-(4-benzylpiperidin-1-yl)-2-[({4-[N-cyclopropyl-carboximidoyl]-pyridin-2-yl}methyl)amino]-ethan-1-one]: above 2500 nM.
The value for `CCN(CC)CCCCNCc1cc(/C=N\CCC2CCCCC2)ccn1` [Compound 67, (2-cyclohexylethyl)-({[2-({[4-(diethylamino)-butyl]amino}methyl)pyridin-4-yl]methylidene})-amine] was above 2500 nM; that for `N#CCNCc1ccnc(CNCCCCN(Cc2ccccc2)C2CC2)c1` [Compound 23, 2-[({2-[({4-[benzyl(cyclopropyl)-amino]butyl}amino)-methyl]pyridin-4-yl}methyl)amino]-acetonitrile] was above 2500 nM; that for `CNC(C#N)c1ccnc(CNCCCN(C)C)c1` (stereo not shown) [Compound 24, 2-[2-({[3-(dimethylamino)propyl]-amino}methyl)pyridin-4-yl]-2-(methylamino)-acetonitrile] was above 2500 nM.
The value for `CC1CC1/N=C/c1ccnc(CNCC(=O)N(C)C)c1` (stereo not shown) [Compound 35, N,N-dimethyl-2-[({4-[N-(2-methylcyclopropyl)-carboximidoyl]pyridin-2-yl}methyl)amino]-acetamide] was above 2500 nM; that for `CCN(CC)CCCCNCc1cc(/C=N/CCOC)ccn1` [Compound 60, [4-(diethylamino)butyl]-({4-[[(2-methoxyethyl)imino]-methyl]pyridin-2-yl}methyl)amine] was above 2500 nM.
With `CCN(CC)CCCCNCc1cc(/C=N/CCO)ccn1` [Compound 61, 2-[{[2-({[4-(diethylamino)-butyl]amino}-methyl)pyridin-4-yl]methylidene}-amino]ethan-1-ol], the half-inhibitory concentration (IC50) is above 2500 nM.
Regarding `CCN(CC)CCCCNCc1cc(C2NCCN2C)ccn1` (stereo not shown) [Compound 65, [4-(diethylamino)-butyl]({[4-(1-methylimidazolidin-2-yl)pyridin-2-yl]methyl})amine], the half-inhibitory concentration (IC50) was above 2500 nM.
The same measure for `CN(C)C(=O)CNCc1cc(/C=N/CCC2CCCCC2)ccn1` [Compound 36, 2-[({4-[[(2-cyclohexylethyl)imino]-methyl]pyridin-2-yl}methyl)amino]-N,N-dimethylacetamide]: above 2500 nM; for `O=C(CNCc1cc(/C=N/C2CC2)ccn1)NC1CCN(Cc2ccccc2)C1` (stereo not shown) [Compound 53, N-(1-benzylpyrrolidin-3-yl)-2-[({4-[N-cyclopropyl-carboximidoyl]pyridin-2-yl}methyl)amino]-acetamide]: 250 to 2500 nM.
The same measure for `CC1CCCCN1CCCNCc1cc(CNC2CC2)ccn1` (stereo not shown) [Compound 11, N-{[2-({[3-(2-methylpiperidin-1-yl)propyl]amino}methyl)-pyridin-4-yl]methyl}-cyclopropanamine]: above 2500 nM.
